The text below walks through data of patent publication US10202354B2, “Therapeutic compounds and uses thereof” (GENENTECH, INC., priority 2015, dated 2019).

Usually IC50 stands for the midpoint of a concentration-inhibition curve. The low end stands for greater potency, the high end for weaker potency.

Full length KDM2B, sequence (Q8NHM5 whole entry): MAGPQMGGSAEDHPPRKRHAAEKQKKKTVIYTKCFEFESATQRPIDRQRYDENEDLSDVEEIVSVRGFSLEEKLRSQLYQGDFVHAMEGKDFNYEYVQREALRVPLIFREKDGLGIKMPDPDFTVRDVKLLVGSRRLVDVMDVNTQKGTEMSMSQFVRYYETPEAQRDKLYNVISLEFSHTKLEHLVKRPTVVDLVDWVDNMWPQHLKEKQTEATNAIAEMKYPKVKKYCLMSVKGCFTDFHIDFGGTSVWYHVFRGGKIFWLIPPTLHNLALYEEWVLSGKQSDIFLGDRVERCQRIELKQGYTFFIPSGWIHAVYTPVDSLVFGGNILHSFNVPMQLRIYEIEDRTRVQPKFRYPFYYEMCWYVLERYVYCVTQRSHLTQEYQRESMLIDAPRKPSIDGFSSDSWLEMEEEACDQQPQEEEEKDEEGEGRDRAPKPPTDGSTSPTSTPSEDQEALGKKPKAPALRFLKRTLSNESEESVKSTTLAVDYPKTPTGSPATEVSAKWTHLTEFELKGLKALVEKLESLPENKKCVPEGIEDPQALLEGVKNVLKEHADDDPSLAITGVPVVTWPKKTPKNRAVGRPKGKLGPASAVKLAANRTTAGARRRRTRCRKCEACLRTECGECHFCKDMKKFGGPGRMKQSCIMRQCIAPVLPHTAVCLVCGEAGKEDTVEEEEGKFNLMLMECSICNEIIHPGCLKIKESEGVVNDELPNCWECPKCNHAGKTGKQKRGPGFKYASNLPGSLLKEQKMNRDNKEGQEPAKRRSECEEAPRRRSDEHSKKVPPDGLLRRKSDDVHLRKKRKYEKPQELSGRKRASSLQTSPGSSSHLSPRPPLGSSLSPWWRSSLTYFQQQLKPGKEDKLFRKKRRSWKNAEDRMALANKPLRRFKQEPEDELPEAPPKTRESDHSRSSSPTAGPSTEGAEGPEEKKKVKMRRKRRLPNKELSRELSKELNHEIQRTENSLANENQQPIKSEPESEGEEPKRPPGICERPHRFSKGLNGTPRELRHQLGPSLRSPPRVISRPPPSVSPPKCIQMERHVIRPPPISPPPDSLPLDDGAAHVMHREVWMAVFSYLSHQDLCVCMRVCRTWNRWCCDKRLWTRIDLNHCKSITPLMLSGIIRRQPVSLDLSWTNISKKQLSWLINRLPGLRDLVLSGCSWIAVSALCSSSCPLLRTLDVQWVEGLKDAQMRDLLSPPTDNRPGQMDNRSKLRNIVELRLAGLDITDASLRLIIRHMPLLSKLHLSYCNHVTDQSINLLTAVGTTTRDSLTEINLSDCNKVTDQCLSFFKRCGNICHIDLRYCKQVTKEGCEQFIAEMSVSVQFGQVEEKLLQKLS

For the assay, the target named is Full length KDM2B (Homo sapiens (Human), UniProt Q8NHM5). Put plainly: KDM2B TR-FRET Assay for Determining Inhibitor IC50. Type of assay: biochemical. Conditions: TR-FRET (HTRF), biotin-H3K36me2 peptide substrate. From the text:
KDM2B TR-FRET Assay for Determining Inhibitor IC50
The KDM2B TR-FRET Assay described above represents an additional embodiment of the invention.
Take `O=S(=O)(c1ccc(-c2ccc(F)cc2)cc1)N1CCN=C1N1CCN(C2CCC2)CC1` [Example 27, 1-cyclobutyl-4-[1-[4-(4-fluorophenyl)phenyl]sulfonyl-4,5-dihydroimidazol-2-yl]piperazine]: the IC50 turned out to be 0.071 nM.
`O=S(=O)(c1ccc(-c2cccc(C(F)(F)F)c2)cc1)N1CCN=C1N1CCN(C2CCC2)CC1` [Example 11, 1-cyclobutyl-4-[1-[4-[3-(trifluoromethyl)phenyl]phenyl]sulfonyl-4,5-dihydroimidazol-2-yl]piperazine] registered an IC50 of 0.134 nM.
For the compound `CCN1CCN(C2=NCCN2S(=O)(=O)c2c(Cl)cccc2Cl)CC1` [Example 118, 1-[1-(2,6-dichlorophenyl)sulfonyl-4,5-dihydroimidazol-2-yl]-4-ethyl-piperazine], half-maximal inhibition (IC50) required 1.02 nM.
The result for `O=S(=O)(c1ccc(-c2cccnc2)cc1)N1CCN=C1N1CCN(C2CCC2)CC1` [Example 7, 1-cyclobutyl-4-[1-[4-(3-pyridyl)phenyl]sulfonyl-4,5-dihydroimidazol-2-yl]piperazine] reads 0.151 nM.
The compound `CC(=O)Nc1ccc(S(=O)(=O)N2CCN=C2N2CCN(C3CCC3)CC2)cc1` [Example 70, N-[4-[[2-(4-cyclobutylpiperazin-1-yl)-4,5-dihydroimidazol-1-yl]sulfonyl]phenyl]acetamide] yielded an IC50 of 0.094 nM.
The compound `Cc1ccc(C(=O)N2CCN=C2N2CCN(C3CCC3)CC2)cc1` [Example 84, [2-(4-cyclobutylpiperazin-1-yl)-4,5-dihydroimidazol-1-yl]-(p-tolyl)methanone] gave an IC50 of 2.7 nM. This IC50 lies about 29-fold higher than the previous one.
The compound `O=S(=O)(c1ccc(-c2ccccc2O)cc1)N1CCN=C1N1CCN(C2CCC2)CC1` [Example 15, 2-[4-[[2-(4-cyclobutylpiperazin-1-yl)-4,5-dihydroimidazol-1-yl]sulfonyl]phenyl]phenol] registered an IC50 of 0.037 nM.
`COc1ccccc1-c1ccc(S(=O)(=O)N2CCN=C2N2CCN(C3CCC3)CC2)cc1` [Example 24, 1-cyclobutyl-4-[1-[4-(2-methoxyphenyl)phenyl]sulfonyl-4,5-dihydroimidazol-2-yl]piperazine] gave an IC50 of 0.05 nM. The IC50 values of the last two compounds are within 1.5-fold of each other.
Consider `COc1cccc(-c2ccc(S(=O)(=O)N3CCN=C3N3CCN(C4CCC4)CC3)cc2)c1` [Example 2, 1-cyclobutyl-4-[1-[4-(3-methoxyphenyl)phenyl]sulfonyl-4,5-dihydroimidazol-2-yl]piperazine], for which the IC50 stood at 0.098 nM.
For `Cc1ccc(-c2ccc(S(=O)(=O)N3CCN=C3N3CCN(C4CCC4)CC3)cc2)cc1` [Example 10, 1-cyclobutyl-4-[1-[4-(p-tolyl)phenyl]sulfonyl-4,5-dihydroimidazol-2-yl]piperazine], the IC50 turned out to be 0.145 nM.
`CC(C)c1ccc(S(=O)(=O)N2C[C@H](C)N=C2N2CCN(C3CCC3)CC2)cc1` [Example 47, (S)-1-cyclobutyl-4-[1-(4-isopropylphenyl)sulfonyl-4-methyl-4,5-dihydroimidazol-2-yl]piperazine] returned an IC50 of 0.114 nM.
As for `O=S(=O)(c1ccc(-c2ccccc2Cl)cc1)N1CCN=C1N1CCN(C2CCC2)CC1` [Example 21, 1-[1-[4-(2-chlorophenyl)phenyl]sulfonyl-4,5-dihydroimidazol-2-yl]-4-cyclobutyl-piperazine], the IC50 is 0.084 nM. The IC50 values of the last two compounds are within 1.5-fold of each other.
The result for `O=C(c1cccc(Cl)c1)N1CCN=C1N1CCN(C2CCC2)CC1` [Example 86, (3-chlorophenyl)-[2-(4-cyclobutylpiperazin-1-yl)-4,5-dihydroimidazol-1-yl]methanone] reads 2.04 nM; that for `O=C(c1ccccc1)N1CCN=C1N1CCN(C2CCC2)CC1` [Example 82, [2-(4-cyclobutylpiperazin-1-yl)-4,5-dihydroimidazol-1-yl]-phenyl-methanone], 7 nM.
The result for `O=S(=O)(c1ccc(-c2ccsc2)cc1)N1CCN=C1N1CCN(C2CCC2)CC1` [Example 20, 1-cyclobutyl-4-[1-[4-(3-thienyl)phenyl]sulfonyl-4,5-dihydroimidazol-2-yl]piperazine] reads 0.021 nM.
